The values that follow come from ChEMBL document CHEMBL1146975, “Identification of cytotoxic, T-cell-selective 1,4-benzodiazepine-2,5-diones” (Bioorg Med Chem Lett, 2006).

The nature of assay [1]: Selectivity for Jurkat T cells over Ramos B cells. The class given is functional.
Another assay has as its system Jurkat. Briefly: Cytotoxicity against human Jurkat T cells. The class given is functional, cell-based.
Another assay has as its system Ramos. In words: Cytotoxicity against human Ramos B cells. The class given is functional, cell-based.

What is called EC50 is the concentration needed to bring the measured effect to its halfway point. A lower EC50 goes with a more potent agent. On to `CN1C(=O)C(Cc2ccc(-c3ccoc3)cc2)NC(=O)c2cc(Cl)ccc21` (stereo not drawn), for which the “Ratio EC50” value in assay [1] is reported as 6.5. Further, the EC50 was 0.3 µM in the assay on Jurkat and 2 µM in the assay with Ramos.
Consider `CN1C(=O)C(Cc2ccc(-c3cccnc3)cc2)NC(=O)c2cc(Cl)ccc21` (stereo not drawn), for which the “Ratio EC50” value in assay [1] is reported as 10. Also, the EC50 with Jurkat worked out at 0.6 µM; in the assay on Ramos, 6 µM.
`CN1C(=O)C(Cc2ccc3ccccc3c2)NC(=O)c2cc(Cl)ccc21` (stereo not drawn): the EC50 in the assay with Jurkat amounted to 3 µM; in the assay with Ramos, 10.7 µM.
Take `CN1C(=O)C(Cc2ccc(-c3ccccc3[N+](=O)[O-])cc2)NC(=O)c2cc(Cl)ccc21` (stereo not drawn): the EC50 with Jurkat and in the assay on Ramos was > 20 µM throughout.
For the compound `CN1C(=O)C(Cc2c[nH]c3ccccc23)NC(=O)c2cc(Cl)ccc21` (stereo not drawn), the EC50 in the assay on Jurkat came out at 26.2 µM; in the assay on Ramos, 9.2 µM.
On the same counts, the results for `CN1C(=O)C(Cc2ccc(C(C)(C)C)cc2)NC(=O)c2cc(Cl)ccc21` (stereo not drawn) are 8.2 µM and 16.2 µM.
For `Cc1ccccc1-c1ccc(CC2NC(=O)c3cc(Cl)ccc3N(C)C2=O)cc1` (stereo not drawn), the “Ratio EC50” value in assay [1] turned out to be 1.2. For the same compound, the EC50 came out at 5.4 µM with Jurkat and 6.7 µM with Ramos.
For the compound `CN1C(=O)C(Cc2ccc(-c3cccc(Br)c3)cc2)NC(=O)c2cc(Cl)ccc21` (stereo not drawn), the “Ratio EC50” value in assay [1] amounted to 1.9. The EC50 was 4.8 µM with Jurkat and 9.2 µM with Ramos.
On to `CN1C(=O)C(Cc2ccc(-c3ccncc3)cc2)NC(=O)c2cc(Cl)ccc21` (stereo not drawn), for which the “Ratio EC50” value in assay [1] worked out at 6. Besides, the EC50 in the assay on Jurkat turned out to be 0.5 µM; with Ramos, 3 µM.
Turning to `Cc1ccc(-c2ccc(CC3NC(=O)c4cc(Cl)ccc4N(C)C3=O)cc2)cc1` (stereo not drawn), the “Ratio EC50” value in assay [1] stood at 1.9. Also, the EC50 in the assay on Jurkat amounted to 3.6 µM; with Ramos it was 6.9 µM.
On the same counts, the results for `CN1C(=O)C(Cc2ccc(-c3cccc(O)c3)cc2)NC(=O)c2cc(Cl)ccc21` (stereo not drawn) are 2.7, 1.5 µM and 4 µM.
Take `CN1C(=O)C(CCc2ccccc2)NC(=O)c2cc(Cl)ccc21` (stereo not drawn): the EC50 was > 80 µM in the assay on Jurkat and > 100 µM in the assay on Ramos.
For `CN1C(=O)C(Cc2ccc(-c3cccc(C(=O)O)c3)cc2)NC(=O)c2cc(Cl)ccc21` (stereo not drawn), in that order: > 20 µM and > 20 µM.
As to `CN1C(=O)C(Cc2ccc(-c3ccc(Cl)cc3)cc2)NC(=O)c2cc(Cl)ccc21` (stereo not drawn), in assay [1], the “Ratio EC50” value is 1. Further, the EC50 in the assay on Jurkat and in the assay with Ramos was 6.5 µM throughout.
`CN1C(=O)C(Cc2ccc(-c3ccccc3Cl)cc2)NC(=O)c2cc(Cl)ccc21` (stereo not drawn): in assay [1], the “Ratio EC50” value turned out to be 1.2. Besides, the EC50 was 8.3 µM in the assay on Jurkat and 10.3 µM in the assay on Ramos.
Regarding `CN1C(=O)C(Cc2ccccc2)NC(=O)c2cc(Cl)ccc21` (stereo not drawn), the EC50 is > 80 µM in the assay with Jurkat and > 100 µM in the assay with Ramos.
Regarding `CN1C(=O)C(Cc2cccc3ccccc23)NC(=O)c2cc(Cl)ccc21` (stereo not drawn), the EC50 with Jurkat turned out to be 20.5 µM; in the assay on Ramos, 12.6 µM.
Regarding `CN1C(=O)C(Cc2ccc(-c3cccc([N+](=O)[O-])c3)cc2)NC(=O)c2cc(Cl)ccc21` (stereo not drawn), the “Ratio EC50” value in assay [1] stood at 2.8. Also, the EC50 came to 1.5 µM with Jurkat and 4.2 µM in the assay with Ramos.
With `CN1C(=O)C(Cc2ccc(-c3cccc(Cl)c3)cc2)NC(=O)c2cc(Cl)ccc21` (stereo not drawn), the “Ratio EC50” value in assay [1] amounted to 0.8. Besides, the EC50 in the assay with Jurkat was determined as 2 µM; with Ramos, 1.5 µM.
On the same counts, the results for `CN1C(=O)C(Cc2ccc(-c3ccc(Br)cc3)cc2)NC(=O)c2cc(Cl)ccc21` (stereo not drawn) are >2, 9.8 µM and > 20 µM.
For the compound `CN1C(=O)C(Cc2ccc(-c3ccc([N+](=O)[O-])cc3)cc2)NC(=O)c2cc(Cl)ccc21` (stereo not drawn), in assay [1], the “Ratio EC50” value came out at 2.6. Also, the figures for the EC50 in the assay on Jurkat and in the assay with Ramos were 3.8 µM and 10 µM, respectively.
Regarding `CN1C(=O)C(Cc2ccc(-c3ccc(C(F)(F)F)cc3)cc2)NC(=O)c2cc(Cl)ccc21` (stereo not drawn), the “Ratio EC50” value in assay [1] was 0.9. Also, the values for the EC50 in the assay on Jurkat and in the assay with Ramos were 5.2 µM and 4.8 µM, respectively.
Turning to `CN1C(=O)C(Cc2ccc(-c3cccc(C(F)(F)F)c3)cc2)NC(=O)c2cc(Cl)ccc21` (stereo not drawn), the “Ratio EC50” value in assay [1] is 0.9. The values for the EC50 in the assay with Jurkat and in the assay on Ramos were 4.5 µM and 4 µM, respectively.
Consider `CN1C(=O)C(Cc2ccc(-c3ccccc3)cc2)NC(=O)c2cc(Cl)ccc21` (stereo not drawn), for which the EC50 in the assay on Jurkat is 2.3 µM; in the assay with Ramos, 6.2 µM.
As to `Cc1cccc(-c2ccc(CC3NC(=O)c4cc(Cl)ccc4N(C)C3=O)cc2)c1` (stereo not drawn), in assay [1], the “Ratio EC50” value is 0.9. In addition, the EC50 in the assay with Jurkat amounted to 3.1 µM; in the assay with Ramos, 2.8 µM.
For `CN1C(=O)C(Cc2ccc(-c3ccc(O)cc3)cc2)NC(=O)c2cc(Cl)ccc21` (stereo not drawn), in that order: 4, 1.5 µM and 6 µM.
`CN1C(=O)C(Cc2ccccc2Cc2ccccc2)NC(=O)c2cc(Cl)ccc21` (stereo not drawn): the EC50 is 17.6 µM in the assay on Jurkat and 18.6 µM in the assay with Ramos.
As to `CN1C(=O)C(Cc2ccc(-c3ccc(C(=O)O)cc3)cc2)NC(=O)c2cc(Cl)ccc21` (stereo not drawn), in assay [1], the “Ratio EC50” value was 2.1. For the same compound, the EC50 in the assay with Jurkat was 15.1 µM; in the assay on Ramos it was 31.8 µM.
Consider `CN1C(=O)C(Cc2ccc(/C=C/c3ccccc3)cc2)NC(=O)c2cc(Cl)ccc21` (stereo not drawn), for which the EC50 in the assay with Jurkat was found to be 7.5 µM; with Ramos, 50.3 µM.
As for `CN1C(=O)C(Cc2cccc(-c3ccccc3)c2)NC(=O)c2cc(Cl)ccc21` (stereo not drawn), the EC50 in the assay on Jurkat amounted to 5.4 µM; with Ramos, 19.1 µM.
